Experimental data as given in patent US10626115B2, “Fused pyrimidinone and triazinone derivatives containing bridged nitrogen, their process of preparation and their therapeutic uses as antifungal and/or antiparasitic agents” (UNIVERSITE DE NANTES, priority 2015, dated 2020).
≈ marks a conversion by molar mass, not a printed value.

Legend:
[1] = test system: fluconazole-susceptible C. albicans strain: CAAL93; assay: Antifungal susceptibility, spectrofluorimetric microdilution, CAAL93; format: cell-based; conditions: Candida albicans; concentration inhibiting 50% of control fluorescence; read-out: MIC values CAAL93
Procedure: (§1) Eight strains of Candida spp. with various azoles-susceptibilities were used: • One fluconazole-susceptible C. albicans strain: CAAL93 • Two fluconazole-resistant C. albicans strains: CAAL111 (efflux pump) and CAAL117 (erg11 mutations+voriconazole-resistant) • five fluconazole-resistant Candida non albicans strains: C. krusei (CAKR7, CAKR8), C. glabrata (CAGL2), C. parapsilosis s.l. (CAPA1, CAPA2).
(§2) Antifungal susceptibility was evaluated with a spectrofluorimetric microdilution method.

[2] = test system: fluconazole-resistant C. parapsilosis s.l. (CAPA2); assay: microbe, parasite or virus in culture; format: cell-based; conditions: Lodderomyces parapsilosis, read-out: MIC values CAPA2
Procedure: as §1, §2

[3] = test system: fluconazole-resistant C. krusei (CAKR7); assay: microbe, parasite or virus in culture; format: cell-based; conditions: Pichia kudriavzevii, read-out: MIC values CAKR7
Procedure: as §1, §2

[4] = test system: fluconazole-resistant C. glabrata (CAGL2); assay: microbe, parasite or virus in culture; format: cell-based; conditions: Nakaseomyces glabratus, read-out: MIC values CAGL2
Procedure: as §1, §2

[5] = test system: fluconazole-resistant C. krusei (CAKR8); assay: microbe, parasite or virus in culture; format: cell-based; conditions: Pichia kudriavzevii, read-out: MIC values CAKR8
Procedure: as §1, §2

[6] = test system: fluconazole-resistant C. albicans strain CAAL111 (efflux pump); assay: microbe, parasite or virus in culture; format: cell-based; conditions: Candida albicans, read-out: MIC values CAAL111
Procedure: as §1, §2

[7] = test system: fluconazole-resistant C. albicans strain CAAL117 (erg11 mutations+voriconazole-resistant); assay: microbe, parasite or virus in culture; format: cell-based; conditions: Candida albicans, read-out: MIC values CAAL117
Procedure: as §1, §2

[8] = test system: fluconazole-resistant C. parapsilosis s.l. (CAPA1); assay: microbe, parasite or virus in culture; format: cell-based; conditions: Lodderomyces parapsilosis, read-out: MIC values CAPA1
Procedure: as §1, §2

[9] = test system: Aspergillus fumigatus (ASFU7) spores; assay: Murine invasive aspergillosis; format: in vivo; conditions: neutropenic Swiss mice, ASFU7 spores i.v., 10 mg/kg per os once a day for 5 days
Procedure: Transiently neutropenic female Swiss mice were used for experiments on systemic candidiasis and invasive aspergillosis.
Mice were inoculated intravenously with Aspergillus fumigatus (ASFU7) spores.
Treatment was administrated once a day (10 mg/kg per os) for 5 days. […] Fungal burden of the kidney was evaluated in dead animals during the experimentation or in animals sacrificed at the end of the experimentation.

[10] = test system: A. fumigatus itraconazole-resistant strain ASFU17; assay: Antifungal susceptibility, spectrofluorimetric microdilution, ASFU17; format: cell-based, Aspergillus fumigatus
Procedure: (§3) Eleven strains of A. fumigatus with various itraconazole susceptibility were used: • Five susceptible strains: ASFU7, ASFU35A, ASFU38A, ASFU76 and ASFU78. • Six itraconazole-resistant strains: ASFU77 (erg11 mutation), ASFU13, ASFU17, ASFU19, ASFU20, ASFU23.
(§4) Antifungal susceptibility was evaluated with a spectrofluorimetric microdilution method. MIC was the concentration that was able to inhibit 80% of fluorescence measured in the control wells.

[11] = test system: A. fumigatus itraconazole-resistant strain ASFU13; assay: Antifungal susceptibility, spectrofluorimetric microdilution, ASFU13; format: cell-based, Aspergillus fumigatus
Procedure: as §3, §4

[12] = test system: A. fumigatus susceptible strain ASFU78; assay: Antifungal susceptibility, spectrofluorimetric microdilution, ASFU78; format: cell-based, Aspergillus fumigatus; conditions: concentration inhibiting 80% of control fluorescence
Procedure: as §3, §4

[13] = test system: A. fumigatus itraconazole-resistant strain ASFU20; assay: Antifungal susceptibility, spectrofluorimetric microdilution, ASFU20; format: cell-based, Aspergillus fumigatus
Procedure: as §3, §4

[14] = test system: A. fumigatus susceptible strain ASFU7; assay: Antifungal susceptibility, spectrofluorimetric microdilution, ASFU7; format: cell-based, Aspergillus fumigatus; conditions: concentration inhibiting 80% of control fluorescence
Procedure: as §3, §4

[15] = test system: promastigote stage of a Leishmania mexicana strain; assay: Anti-Trypanosomatidae activity, promastigote stage, spectrofluorimetric microdilution; format: cell-based; conditions: promastigote stage; 50% of control growth; read-out: L. mexicana (IC50 μM)
Procedure: Compounds were evaluated on the promastigote stage of a Leishmania mexicana strain using a spectrofluorimetric microdilution method. Inhibitory concentration 50 (IC50) was the concentration that inhibited 50% of the control growth.

[16] = test system: A. fumigatus susceptible strain ASFU76; assay: Antifungal susceptibility, spectrofluorimetric microdilution, ASFU76; format: cell-based, Aspergillus fumigatus; conditions: concentration inhibiting 80% of control fluorescence
Procedure: as §3, §4

[17] = test system: A. fumigatus susceptible strain ASFU38A; assay: Antifungal susceptibility, spectrofluorimetric microdilution, ASFU38A; format: cell-based, Aspergillus fumigatus; conditions: concentration inhibiting 80% of control fluorescence
Procedure: as §3, §4

[18] = test system: A. fumigatus itraconazole-resistant strain ASFU19; assay: Antifungal susceptibility, spectrofluorimetric microdilution, ASFU19; format: cell-based, Aspergillus fumigatus
Procedure: as §3, §4

[19] = test system: A. fumigatus susceptible strain ASFU35A; assay: Antifungal susceptibility, spectrofluorimetric microdilution, ASFU35A; format: cell-based, Aspergillus fumigatus; conditions: concentration inhibiting 80% of control fluorescence
Procedure: as §3, §4

[20] = test system: A. fumigatus itraconazole-resistant strain ASFU77 (erg11 mutation); assay: Antifungal susceptibility, spectrofluorimetric microdilution, ASFU77; format: cell-based, Aspergillus fumigatus
Procedure: as §3, §4

[21] = test system: A. fumigatus itraconazole-resistant strain ASFU23; assay: Antifungal susceptibility, spectrofluorimetric microdilution, ASFU23; format: cell-based, Aspergillus fumigatus
Procedure: as §3, §4

[22] = concentration inhibiting 80% of control fluorescence

## OC(Cn1cncn1)(Cn1cncn1)c1ccc(F)cc1F [FLC, fluconazole, reference compound]
[1]
  MIC: 0.036 ± 0.02 µg/mL (≈ 0.118 µM)
[2]
  MIC: > 30 µg/mL
[3]
  MIC: > 3 µg/mL
[4]
  MIC: 10.1 ± 0.61 µg/mL (≈ 33 µM)
[5]
  MIC: > 10 µg/mL
[6]
  MIC: > 30 µg/mL
[7]
  MIC: > 3 µg/mL
[8]
  MIC: > 30 µg/mL

## CCC(C)n1ncn(-c2ccc(N3CCN(c4ccc(OCC5COC(Cn6cncn6)(c6ccc(Cl)cc6Cl)O5)cc4)CC3)cc2)c1=O (centres unmarked) [ITRA, Itraconazole, reference compound]
[9]; 14 days, p<0.01
  survival: did survive significantly longer
[9]; p<0.05
  fungal burden of the kidney: significantly reduced
[10]; [22]
  MIC values ASFU17: >7 µg/mL
[11]; [22]
  MIC values ASFU13: >70 µg/mL
[12]
  MIC values ASFU78: 0.31 µg/mL (≈ 0.439 µM)
[13]; [22]
  MIC values ASFU20: >7 µg/mL
[14]
  MIC values ASFU7: 0.42 ± 0.04 µg/mL (≈ 0.595 µM)
[15]
  IC50: 2.5 ± 0.7 µM
[16]
  MIC values ASFU76: 0.50 ± 0.24 µg/mL (≈ 0.709 µM)
[17]
  MIC values ASFU38A: 0.52 µg/mL (≈ 0.737 µM)
[18]; [22]
  MIC values ASFU19: >7 µg/mL
[19]
  MIC values ASFU35A: 0.24 µg/mL (≈ 0.34 µM)
[20]; [22]
  MIC values ASFU77: >100 µg/mL
[21]; [22]
  MIC values ASFU23: >7 µg/mL

## C[C@@H](c1ncncc1F)[C@](O)(Cn1cncn1)c1ccc(F)cc1F [VOR, voriconazole, reference compound]
[10]; Aspergillus fumigatus, read-out: MIC values ASFU17
  MIC: 1.19 µg/mL (≈ 3.39 µM)
[11]; Aspergillus fumigatus, read-out: MIC values ASFU13
  MIC: 0.136 µg/mL (≈ 0.389 µM)
[1]
  MIC: 0.005 ± 0.001 µg/mL (≈ 0.0143 µM)
[12]; Aspergillus fumigatus, read-out: MIC values ASFU78
  MIC: 0.59 ± 0.01 µg/mL (≈ 1.69 µM)
[13]; Aspergillus fumigatus, read-out: MIC values ASFU20
  MIC: 0.178 µg/mL (≈ 0.51 µM)
[14]; Aspergillus fumigatus, read-out: MIC values ASFU7
  MIC: 0.15 ± 0.001 µg/mL (≈ 0.429 µM)
[16]; Aspergillus fumigatus, read-out: MIC values ASFU76
  MIC: 0.64 ± 0.01 µg/mL (≈ 1.83 µM)
[17]; Aspergillus fumigatus, read-out: MIC values ASFU38A
  MIC: 0.75 ± 0.2 µg/mL (≈ 2.15 µM)
[18]; Aspergillus fumigatus, read-out: MIC values ASFU19
  MIC: 1.86 µg/mL (≈ 5.33 µM)
[2]
  MIC: 0.36 ± 0.001 µg/mL (≈ 1.03 µM)
[3]
  MIC: 0.817 ± 0.007 µg/mL (≈ 2.34 µM)
[4]
  MIC: 0.126 ± 0.003 µg/mL (≈ 0.361 µM)
[5]
  MIC: 0.24 ± 0.07 µg/mL (≈ 0.687 µM)
[6]
  MIC: 0.458 ± 0.196 µg/mL (≈ 1.31 µM)
[7]
  MIC: 1.1 ± 0.1 µg/mL (≈ 3.15 µM)
[8]
  MIC: 0.95 ± 0.13 µg/mL (≈ 2.72 µM)
[19]; Aspergillus fumigatus, read-out: MIC values ASFU35A
  MIC: 0.6 ± 0.08 µg/mL (≈ 1.72 µM)
[20]; Aspergillus fumigatus, read-out: MIC values ASFU77
  MIC: 0.61 ± 0.04 µg/mL (≈ 1.75 µM)
[21]; Aspergillus fumigatus, read-out: MIC values ASFU23
  MIC: 0.097 µg/mL (≈ 0.278 µM)
